Experimental data taken from patent publication US7799343B2, “Safer control of broadleaf weeds in turf with granular formulations of ALS inhibiting herbicides” (priority 2006, dated 2010).

How the values were obtained:
Type in all cases: in vivo
[1] = test system: tall fescue; assay: Turf tolerance field study, tall fescue, Indiana 2004; conditions: 14 Days After Treatment, g ai/Ha: penoxsulam 35, imazaquin 104, bispyribac-sodium 75, trifloxysulfuron-sodium 9.2, metsulfuron-methyl 10.4; for Cover: 0 = bare ground, 100 = thick solid stand; for Color: 0 = brown to dead turf, 10 = lush green; for Injury: 0 = no visible injury, 10 = dead turf
Procedure: (§1) Turf tolerance studies were conducted in monoculture stands of perennial ryegrass and tall fescue. Replicated trials, containing a minimum of three replications and having individual plots ranging in size from 25 to 50 ft. sq (2.3 to 4.6 square meters), were initiated in the late spring when turf was actively growing. […] Natural rainfall and supplemental irrigation, fertilizer, fungicides and insecticides were used to maintain healthy turf throughout the study period. Turf tolerance evaluations were made weekly for 8 weeks after application. Evaluations compared treated and untreated plot areas and consisted of one or all of the following evaluations: 1) visual estimate of turf injury made on a 0 to 10 scale with 0 indicating no visible injury symptoms, 10 being dead turf and 3 or less being commercially acceptable; 2) visual estimate of turf color made on a 0 to 10 scale with 0 being brown to dead turf, 10 being a lush green turf of highest quality and 6.5 being commercially acceptable; 3) visual estimate of turf density made on a 0 to 100 scale with 0 being bare ground, 100 being a thick solid stand of highest quality and 90 percent density being commercially acceptable; 4) visual estimate of turf quality made on a 0 to 10 scale with 0 being brown to dead turf, 10 being a lush green turf of highest quality and 6.5 being commercially acceptable.

[2] = test system: perennial ryegrass; assay: Turf tolerance field study, perennial ryegrass, Indiana 2004; conditions: 21 Days After Treatment, g ai/Ha: penoxsulam 35, imazaquin 104, bispyribac-sodium 75, trifloxysulfuron-sodium 9.2, metsulfuron-methyl 10.4; for Cover: 0 = bare ground, 100 = thick solid stand; for Color: 0 = brown to dead turf, 10 = lush green; for Injury: 0 = no visible injury, 10 = dead turf
Procedure: as §1

[3] = test system: perennial ryegrass; assay: Perennial ryegrass turf quality field study, Pennsylvania 2004; conditions: perennial ryegrass, 0 = brown to dead turf, 10 = highest quality, g ai/Ha: penoxsulam 35, imazaquin 104, bispyribac-sodium 75, trifloxysulfuron-sodium 9.2, metsulfuron-methyl 10.4; for Turf Quality 4 DAA: 4 Days After Application; for Turf Quality 16 DAA: 16 Days After Application; for Turf Quality 36 DAA: 36 Days After Application
Procedure: as §1

[4] = test system: dandelion, Taraxacum officinale (TAROF); assay: Postemergent weed control field study, Pennsylvania 2004, TAROF; conditions: Granule formulation, g ai/Ha: penoxsulam 35, imazaquin 104, bispyribac-sodium 75, trifloxysulfuron-sodium 9.2, metsulfuron-methyl 10.4; for Percent Weed Control TAROF 29DAA: 29 Days After Application; for Percent Weed Control TAROF 56DAA: 56 Days After Application
Source text: (§2) The ALS inhibiting herbicides are useful in controlling broadleaf weeds and sedges in turfgrass. They are particularly effective against most important weeds in this application, viz., white clover, Trifolium repens L. (TRFRE); buckhorn plantain, Plantago lanceolata L. (PLALA); dandelion, Taraxacum officinale (TAROF); broadleaf plantain, Plantago major L. (PLAMA); ground ivy, Glechoma hederacea L. (GLEHE); common lespedeza, Lespedeza striata (LESST); pennywort (dollarweed), Hydrocotyle spp (HYDSS); Virginia buttonweed, Diodia virginiana L. (DIQVI) English daisy, Bellis perennis L. (BELPE); annual bluegrass, Poa annua (POANN); and yellow nutsedge, Cypres esculentus L. (CYPES).
(§3) Field studies were conducted in established turfgrass sites containing a natural population of target broadleaf weeds. Replicated trials, containing a minimum of three replications and having individual plots ranging in size from 25 to 50 ft. sq (2.3 to 4.6 square meters), were initiated in the late spring when turf and weeds were actively growing. Granule treatments were uniformly applied to individual plots using a common hand-shaker method. Applications were made in the early morning when dew was present. Natural rainfall and supplemental irrigation were used to maintain healthy turf and active weed growth throughout the study period. Control of each weed species in the study site was made at approximately 2, 4 and 8 weeks after treatment. Control was determined visually by comparing treated and untreated weeds and scored on a 0 to 100 percent scale where 0 corresponds to no control and 100 corresponds to complete kill.

[5] = test system: white clover, Trifolium repens L. (TRFRE); assay: Postemergent weed control field study, Pennsylvania 2004, TRFRE; conditions: g ai/Ha: penoxsulam 35, imazaquin 104, bispyribac-sodium 75, trifloxysulfuron-sodium 9.2, metsulfuron-methyl 10.4; for Percent Weed Control TRFRE 29DAA: 29 Days After Application; for Percent Weed Control TRFRE 56DAA: 56 Days After Application
Source text: as §2
as §3, with “Granule treatments were uniformly applied to individual plots using a common hand-shaker method.” left out

[6] = test system: buckhorn plantain, Plantago lanceolata L. (PLALA); assay: Postemergent weed control field study, Pennsylvania 2004, PLALA; conditions: g ai/Ha: penoxsulam 35, imazaquin 104, bispyribac-sodium 75, trifloxysulfuron-sodium 9.2, metsulfuron-methyl 10.4; for Percent Weed Control PLALA 29DAA: 29 Days After Application; for Percent Weed Control PLALA 56DAA: 56 Days After Application
Source text: as §2
as §3, with “Granule treatments were uniformly applied to individual plots using a common hand-shaker method.” left out

[7] = test system: annual bluegrass, Poa annua (POANN); assay: Postemergent weed control field study, Pennsylvania 2004, POANN; conditions: g ai/Ha: penoxsulam 35, imazaquin 104, bispyribac-sodium 75, trifloxysulfuron-sodium 9.2, metsulfuron-methyl 10.4; for Percent Weed Control POANN 29DAA: 29 Days After Application; for Percent Weed Control POANN 56DAA: 56 Days After Application
Source text: as §2, §3

[8] = test system: dandelion, Taraxacum officinale (TAROF); assay: Postemergent weed control field study, Pennsylvania 2004, TAROF; conditions: Liquid formulation, g ai/Ha: penoxsulam 35, imazaquin 104, bispyribac-sodium 75, trifloxysulfuron-sodium 9.2, metsulfuron-methyl 10.4; for Percent Weed Control TAROF 29DAA: 29 Days After Application; for Percent Weed Control TAROF 56DAA: 56 Days After Application

SMILES	Cover ([1]; Granule formulation)	Color ([1]; Granule formulation)	Injury ([1]; Granule formulation)	Cover ([1]; Liquid formulation)	Color ([1]; Liquid formulation)	Injury ([1]; Liquid formulation)	Cover ([2]; Granule formulation)	Color ([2]; Granule formulation)	Injury ([2]; Granule formulation)	Cover ([2]; Liquid formulation)	Color ([2]; Liquid formulation)	Injury ([2]; Liquid formulation)	Turf Quality 4 DAA ([3]; Granule formulation)	Turf Quality 16 DAA ([3]; Granule formulation)	Turf Quality 36 DAA ([3]; Granule formulation)	Turf Quality 4 DAA ([3]; Liquid formulation)	Turf Quality 16 DAA ([3]; Liquid formulation)	Turf Quality 36 DAA ([3]; Liquid formulation)	Percent Weed Control TAROF 29DAA [4] [%]	Percent Weed Control TAROF 56DAA [4] [%]	also measured
COc1cc(OC)nc(Oc2cccc(Oc3nc(OC)cc(OC)n3)c2C(=O)O)n1 [Bispyribac-sodium, bispyribac-sodium]	100.0 0-100 Scale	9.0 0-10 Scale	0.0 0-10 Scale	97.5 0-100 Scale	8.8 0-10 Scale	2.0 0-10 Scale	100.0 0-100 Scale	8.5 0-10 Scale	1.0 0-10 Scale	85.0 0-100 Scale	6.5 0-10 Scale	4.5 0-10 Scale	8.7 0 to 10 scale	7.3 0 to 10 scale	10.0 0 to 10 scale	8.0 0 to 10 scale	5.7 0 to 10 scale	10.0 0 to 10 scale	45.0	23.3	Percent Weed Control TRFRE 29DAA ([5]; Granule formulation): 36.1%; Percent Weed Control TRFRE 29DAA ([5]; Liquid formulation): 88.9%; Percent Weed Control TRFRE 56DAA ([5]; Liquid formulation): 55.6%; Percent Weed Control PLALA 29DAA ([6]; Granule formulation): 27.8%; Percent Weed Control PLALA 56DAA ([6]; Granule formulation): 27.8%; Percent Weed Control PLALA 29DAA ([6]; Liquid formulation): 75.6%; Percent Weed Control PLALA 56DAA ([6]; Liquid formulation): 57.8%; Percent Weed Control POANN 29DAA ([7]; Granule formulation): 40.0%; Percent Weed Control POANN 56DAA ([7]; Granule formulation): 28.9%; Percent Weed Control POANN 29DAA ([7]; Liquid formulation): 28.3%; Percent Weed Control POANN 56DAA ([7]; Liquid formulation): 23.3%; Percent Weed Control TAROF 29DAA [8]: 95.7%; Percent Weed Control TAROF 56DAA [8]: 57.1%
CC(C)C1(C)N=C(c2nc3ccccc3cc2C(=O)O)NC1=O (centres unmarked) [Imazaquin, imazaquin]	100.0 0-100 Scale	9.0 0-10 Scale	0.5 0-10 Scale	70.0 0-100 Scale	5.3 0-10 Scale	5.3 0-10 Scale	98.8 0-100 Scale	8.8 0-10 Scale	1.8 0-10 Scale	97.5 0-100 Scale	8.3 0-10 Scale	3.3 0-10 Scale	10.0 0 to 10 scale	3.0 0 to 10 scale	3.3 0 to 10 scale	7.7 0 to 10 scale	3.3 0 to 10 scale	7.7 0 to 10 scale	13.9	17.8	Percent Weed Control TRFRE 29DAA ([5]; Granule formulation): 0.0%; Percent Weed Control TRFRE 56DAA ([5]; Granule formulation): 23.3%; Percent Weed Control TRFRE 29DAA ([5]; Liquid formulation): 22.2%; Percent Weed Control TRFRE 56DAA ([5]; Liquid formulation): 11.1%; Percent Weed Control PLALA 29DAA ([6]; Granule formulation): 22.2%; Percent Weed Control PLALA 56DAA ([6]; Granule formulation): 41.1%; Percent Weed Control PLALA 29DAA ([6]; Liquid formulation): 16.7%; Percent Weed Control PLALA 56DAA ([6]; Liquid formulation): 8.3%; Percent Weed Control POANN 29DAA ([7]; Granule formulation): 31.4%; Percent Weed Control POANN 56DAA ([7]; Granule formulation): 18.1%; Percent Weed Control POANN 29DAA ([7]; Liquid formulation): 8.8%; Percent Weed Control POANN 56DAA ([7]; Liquid formulation): 26.2%; Percent Weed Control TAROF 29DAA [8]: 58.9%; Percent Weed Control TAROF 56DAA [8]: 11.1%
COc1cc(OC)nc(NC(=O)[N-]S(=O)(=O)c2ncccc2OCC(F)(F)F)n1.[Na+] [Trifloxysulfuron-sodium, trifloxysulfuron-sodium]	70.0 0-100 Scale	5.8 0-10 Scale	5.8 0-10 Scale	51.3 0-100 Scale	3.8 0-10 Scale	8.0 0-10 Scale	87.5 0-100 Scale	6.8 0-10 Scale	5.3 0-10 Scale	57.5 0-100 Scale	4.0 0-10 Scale	8.0 0-10 Scale	9.3 0 to 10 scale	4.3 0 to 10 scale	8.3 0 to 10 scale	7.7 0 to 10 scale	2.7 0 to 10 scale	1.3 0 to 10 scale	80.6	40.0	Percent Weed Control TRFRE 29DAA ([5]; Granule formulation): 80.0%; Percent Weed Control TRFRE 56DAA ([5]; Granule formulation): 56.7%; Percent Weed Control TRFRE 29DAA ([5]; Liquid formulation): 100.0%; Percent Weed Control TRFRE 56DAA ([5]; Liquid formulation): 100.0%; Percent Weed Control PLALA 29DAA ([6]; Granule formulation): 0.0%; Percent Weed Control PLALA 56DAA ([6]; Granule formulation): 11.1%; Percent Weed Control PLALA 29DAA ([6]; Liquid formulation): 0.0%; Percent Weed Control PLALA 56DAA ([6]; Liquid formulation): 33.3%; Percent Weed Control POANN 29DAA ([7]; Granule formulation): 34.5%; Percent Weed Control POANN 56DAA ([7]; Granule formulation): 39.9%; Percent Weed Control POANN 29DAA ([7]; Liquid formulation): 95.4%; Percent Weed Control POANN 56DAA ([7]; Liquid formulation): 77.2%; Percent Weed Control TAROF 29DAA [8]: 98.3%; Percent Weed Control TAROF 56DAA [8]: 100.0%
